Assay results reported in the supplement of paper PMC10307832.

compound: O=C1NC(=O)[C@@H](c2cn3c4c(cccc24)CCC3)[C@@H]1c1c[nH]c2ccccc12 [Tivantinib] + NC(=O)Nc1cc(-c2cccc(F)c2)sc1C(=O)N[C@H]1CCCNC1 [AZD7762] (partner 0.2 µM); test: relative viability (nuclei count vs DMSO), 5 days (fraction); higher = more cells survive; details: first compound 0.01 µM
Procedure, shortened: (§1)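 After 5 days of treatment, lung cancer cells in 1536-well plates were fixed and stained in a single step (final 0.05% Triton X-100, 1% formaldehyde, 1 ug/ml Hoechst) and their nuclei counted on 4× images. Treatment had been applied by pin tool the day after seeding as one drug alone or as a fixed anchor-drug dose with five library-drug doses (not always all listed) in √10 steps. Relative viability is the nuclei count of treated wells divided by that of vehicle wells, and values are medians of duplicate plates.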

Row | Cell Line | relative viability
1 | HCC-15 | 1.27
2 | HCC-827 | 0.186
3 | NCI-H441 | 1.04
4 | LOU-NH91 | 0.784
5 | A-427 | 0.792
6 | NCI-H460 | 0.513
7 | NCI-H727 | 0.535
8 | NCI-H1755 | 0.457
9 | NCI-H2405 | 0.877
10 | NCI-H1395 | 0.406
11 | 201T | 0.602
12 | NCI-H1975 | 0.734
13 | HOP-62 | 0.503
14 | NCI-H2347 | 0.848
15 | NCI-H1355 | 0.756
16 | NCI-H650 | 1.17
17 | NCI-H1666 | 0.904

Row | Cell Line | relative viability
18 | H3255 | 0.968
19 | NCI-H23 | 0.283
20 | NCI-H1915 | 0.654
21 | NCI-H1437 | 1.22
22 | NCI-H322M | 0.613
23 | NCI-H1792 | 0.653
24 | NCI-H2085 | 1.01
25 | HCC-366 | 0.229
26 | NCI-H1793 | 0.355
27 | PC-3 [JPC-3] | 0.781
28 | EKVX | 0.59
29 | LCLC-103H | 0.808
30 | NCI-H1944 | 0.513
31 | NCI-H1993 | 0.768
32 | ABC-1 | 0.8
33 | NCI-H358 | 0.443
34 | RERF-LC-KJ | 1.08

same assay, conditions: first compound 0.03162 µM

Row | Cell Line | relative viability
35 | HCC-15 | 1.34
36 | HCC-827 | 0.238
37 | NCI-H441 | 1.22
38 | LOU-NH91 | 0.719
39 | A-427 | 0.829
40 | NCI-H460 | 0.739
41 | NCI-H727 | 0.421
42 | NCI-H1755 | 0.476
43 | NCI-H2405 | 0.806
44 | NCI-H1395 | 0.405
45 | 201T | 0.62
46 | NCI-H1975 | 0.667
47 | HOP-62 | 0.62
48 | NCI-H2347 | 0.727
49 | NCI-H1355 | 0.819
50 | NCI-H650 | 0.818
51 | NCI-H1666 | 0.841

Row | Cell Line | relative viability
52 | H3255 | 0.73
53 | NCI-H23 | 0.23
54 | NCI-H1915 | 0.771
55 | NCI-H1437 | 1.16
56 | NCI-H322M | 0.419
57 | NCI-H2085 | 0.944
58 | HCC-366 | 0.403
59 | NCI-H1793 | 0.645
60 | PC-3 [JPC-3] | 0.823
61 | EKVX | 0.704
62 | LCLC-103H | 0.702
63 | NCI-H1944 | 0.511
64 | NCI-H1993 | 0.715
65 | ABC-1 | 0.912
66 | NCI-H358 | 0.576
67 | RERF-LC-KJ | 0.921

same assay, conditions: first compound 0.1 µM

Row | Cell Line | relative viability
68 | HCC-15 | 1.15
69 | HCC-827 | 0.297
70 | NCI-H441 | 1.11
71 | LOU-NH91 | 0.702
72 | A-427 | 0.749
73 | NCI-H460 | 0.517
74 | NCI-H727 | 0.551
75 | NCI-H1755 | 0.47
76 | NCI-H2405 | 0.753
77 | NCI-H1395 | 0.395
78 | 201T | 0.623
79 | NCI-H1975 | 0.714
80 | HOP-62 | 0.515
81 | NCI-H2347 | 0.669
82 | NCI-H1355 | 0.794
83 | NCI-H650 | 1
84 | NCI-H1666 | 0.835

Row | Cell Line | relative viability
85 | H3255 | 0.902
86 | NCI-H23 | 0.319
87 | NCI-H1915 | 0.629
88 | NCI-H1437 | 1.11
89 | NCI-H322M | 0.571
90 | NCI-H1792 | 0.644
91 | NCI-H2085 | 0.942
92 | HCC-366 | 0.316
93 | NCI-H1793 | 0.412
94 | PC-3 [JPC-3] | 0.884
95 | EKVX | 0.619
96 | LCLC-103H | 0.684
97 | NCI-H1944 | 0.472
98 | NCI-H1993 | 0.656
99 | ABC-1 | 0.708
100 | NCI-H358 | 0.497
101 | RERF-LC-KJ | 0.952

same assay, conditions: first compound 0.3162 µM

Row | Cell Line | relative viability
102 | HCC-15 | 1.29
103 | NCI-H441 | 1.03
104 | LOU-NH91 | 0.738
105 | A-427 | 0.651
106 | NCI-H460 | 0.64
107 | NCI-H1755 | 0.424
108 | NCI-H2405 | 0.828
109 | NCI-H1395 | 0.371
110 | 201T | 0.611
111 | HOP-62 | 0.667
112 | NCI-H2347 | 0.534
113 | NCI-H1355 | 0.637
114 | NCI-H650 | 1.21
115 | NCI-H1666 | 0.705
116 | NCI-H23 | 0.336
117 | NCI-H1915 | 0.665
118 | NCI-H1437 | 0.96
119 | NCI-H1792 | 0.589
120 | NCI-H2085 | 0.813
121 | HCC-366 | 0.237
122 | NCI-H1793 | 0.378
123 | PC-3 [JPC-3] | 0.601
124 | EKVX | 0.28
125 | LCLC-103H | 0.793
126 | NCI-H1944 | 0.426
127 | NCI-H1993 | 0.455
128 | ABC-1 | 0.685
129 | NCI-H358 | 0.279
130 | RERF-LC-KJ | 0.92

compound: CC1(COc2ccc3c(c2)ncn3-c2ccc3cccc(N4CCC(N)CC4)c3n2)COC1 [Crenolanib] + O=C(c1cc(Cc2n[nH]c(=O)c3ccccc23)ccc1F)N1CCN(C(=O)C2CC2)CC1 [Olaparib] (partner 8 µM); test: as above; details: first compound 0.01 µM
Procedure, shortened: as §1

Row | Cell Line | relative viability
131 | HCC-15 | 0.828
132 | HCC-827 | 0.702
133 | NCI-H441 | 0.602
134 | LOU-NH91 | 0.943
135 | A-427 | 0.79
136 | NCI-H460 | 0.445
137 | NCI-H727 | 0.678
138 | NCI-H1755 | 0.919
139 | NCI-H2405 | 0.919
